Source: patent publication US7452908B2, “Amide derivatives” (Banyu Pharmaceutical Co., Ltd., priority 1999, dated 2008)

Legend:
[1] = target: T1, human m1 muscarinic acetylcholine receptor expressed in CHO cells (Homo sapiens, UniProt P11229); test: Inhibition of [3H]-N-methylscopolamine binding to muscarinic m1 receptor; settings: 0.2 nM [3H]-N-methylscopolamine
T1 construct: purchased Receptor Biology, Inc; host or cells: CHO cells
T1 sequence (P11229 1-460): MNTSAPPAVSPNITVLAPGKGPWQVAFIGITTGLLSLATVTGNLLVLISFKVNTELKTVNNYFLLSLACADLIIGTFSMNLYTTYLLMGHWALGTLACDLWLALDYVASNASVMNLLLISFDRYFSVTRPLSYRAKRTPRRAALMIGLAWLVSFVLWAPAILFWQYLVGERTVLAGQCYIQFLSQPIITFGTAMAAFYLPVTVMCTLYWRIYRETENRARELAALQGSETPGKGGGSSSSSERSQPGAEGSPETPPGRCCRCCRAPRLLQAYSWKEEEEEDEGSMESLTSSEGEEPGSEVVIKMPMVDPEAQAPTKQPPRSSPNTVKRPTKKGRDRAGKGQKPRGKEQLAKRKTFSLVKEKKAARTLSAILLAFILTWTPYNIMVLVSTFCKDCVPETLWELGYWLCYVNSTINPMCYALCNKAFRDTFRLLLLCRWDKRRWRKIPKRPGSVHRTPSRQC
Method: (§1) These tests were performed according to a modification of the method of Hargreaves, et al. (Br. J. Pharmacol. 107: 494-501, 1992). Namely, muscarinic acetylcholine receptors of human m1, m2, m3, m4 and m5 expressed in CHO cells (Receptor Biology, Inc.) were incubated with 0.2 nM [^3H]-N-methylscopolamine (82Ci/mmol, New England Nuclear, Inc.) and a test compound to be tested in 0.5 ml of 50 mM Tris-HCl, 10 mM MgCl2, 1 mM EDTA solution (pH 7.4) for 120 minutes at room temperature (about 20-25° C.), followed by suction filtration over a glass filter (UniFilter plate-GF/C; Packard). Then the filter was washed four times with 1 ml of ice-cold Tris-HCl buffer and dried at 50° C. for an hour. After adding a scintillator (Microscinti 0; Packard), the radioactivity of [^3H]-N-methylscopolamine binding to the filter was counted with a microplate scintillation counter (TopCount™; Packard). Non-specific receptor binding of [^3H]-N-methylscopolamine was measured by adding 1 μM N-methylscopolamine.

[2] = target: T2, human m3 muscarinic acetylcholine receptor expressed in CHO cells (Homo sapiens, UniProt P20309); test: Inhibition of [3H]-N-methylscopolamine binding to muscarinic m3 receptor; settings: for Ki: human m3 in CHO cells, 0.2 nM [3H]-N-methylscopolamine; for Selectivity m1/m3: ratio of Ki m1 to Ki m3; for Selectivity m2/m3: ratio of Ki m2 to Ki m3; for Selectivity m4/m3: ratio of Ki m4 to Ki m3; for Selectivity m5/m3: ratio of Ki m5 to Ki m3
T2 construct: purchased Receptor Biology, Inc; host or cells: CHO cells
T2 sequence (P20309 whole entry): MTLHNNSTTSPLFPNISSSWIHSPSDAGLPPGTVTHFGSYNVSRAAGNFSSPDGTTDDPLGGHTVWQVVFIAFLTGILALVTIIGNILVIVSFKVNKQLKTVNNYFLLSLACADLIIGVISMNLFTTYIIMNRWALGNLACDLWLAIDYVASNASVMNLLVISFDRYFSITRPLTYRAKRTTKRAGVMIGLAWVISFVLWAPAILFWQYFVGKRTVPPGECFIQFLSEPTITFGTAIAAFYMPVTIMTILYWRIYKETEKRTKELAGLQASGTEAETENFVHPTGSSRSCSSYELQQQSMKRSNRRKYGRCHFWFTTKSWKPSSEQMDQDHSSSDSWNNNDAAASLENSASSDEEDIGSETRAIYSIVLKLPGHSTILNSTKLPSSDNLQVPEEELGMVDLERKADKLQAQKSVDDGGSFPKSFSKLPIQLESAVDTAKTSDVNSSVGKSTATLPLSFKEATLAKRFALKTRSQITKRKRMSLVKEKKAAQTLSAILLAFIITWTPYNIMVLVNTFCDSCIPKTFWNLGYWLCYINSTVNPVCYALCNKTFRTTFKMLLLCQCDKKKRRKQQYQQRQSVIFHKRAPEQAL
Method: as §1

[3] = target: T3, human m5 muscarinic acetylcholine receptor expressed in CHO cells (Homo sapiens, UniProt P08912); test: Inhibition of [3H]-N-methylscopolamine binding to muscarinic m5 receptor; settings: 0.2 nM [3H]-N-methylscopolamine
T3 construct: purchased Receptor Biology, Inc; host or cells: CHO cells
T3 sequence (P08912 1-532): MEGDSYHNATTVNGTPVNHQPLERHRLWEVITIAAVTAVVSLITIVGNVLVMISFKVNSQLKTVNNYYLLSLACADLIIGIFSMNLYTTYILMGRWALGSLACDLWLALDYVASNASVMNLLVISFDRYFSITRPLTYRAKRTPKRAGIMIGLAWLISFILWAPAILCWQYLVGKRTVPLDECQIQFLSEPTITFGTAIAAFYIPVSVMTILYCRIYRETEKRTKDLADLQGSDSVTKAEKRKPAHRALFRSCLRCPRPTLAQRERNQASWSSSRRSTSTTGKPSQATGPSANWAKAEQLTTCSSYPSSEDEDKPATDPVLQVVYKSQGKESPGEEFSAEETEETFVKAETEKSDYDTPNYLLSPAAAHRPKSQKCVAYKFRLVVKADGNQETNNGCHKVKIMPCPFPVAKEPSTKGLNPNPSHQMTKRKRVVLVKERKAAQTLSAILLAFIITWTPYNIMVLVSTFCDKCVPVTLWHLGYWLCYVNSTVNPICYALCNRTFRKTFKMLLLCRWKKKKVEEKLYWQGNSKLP
Method: as §1

[4] = target: T4, muscarinic M3 receptor (Rattus norvegicus, UniProt P08483); test: Antagonism to muscarinic M3 receptor in vivo: acetylcholine-induced airway resistance-increasing reaction in rats; settings: rat, iv, rats, acetylcholine (50 μg/kg) 5 minutes after test compound; read-out: ED50 Airway constriction M3
T4 construct: from tissue; host or cells: whole animal, male SD rats (in vivo)
T4 sequence (P08483 whole entry): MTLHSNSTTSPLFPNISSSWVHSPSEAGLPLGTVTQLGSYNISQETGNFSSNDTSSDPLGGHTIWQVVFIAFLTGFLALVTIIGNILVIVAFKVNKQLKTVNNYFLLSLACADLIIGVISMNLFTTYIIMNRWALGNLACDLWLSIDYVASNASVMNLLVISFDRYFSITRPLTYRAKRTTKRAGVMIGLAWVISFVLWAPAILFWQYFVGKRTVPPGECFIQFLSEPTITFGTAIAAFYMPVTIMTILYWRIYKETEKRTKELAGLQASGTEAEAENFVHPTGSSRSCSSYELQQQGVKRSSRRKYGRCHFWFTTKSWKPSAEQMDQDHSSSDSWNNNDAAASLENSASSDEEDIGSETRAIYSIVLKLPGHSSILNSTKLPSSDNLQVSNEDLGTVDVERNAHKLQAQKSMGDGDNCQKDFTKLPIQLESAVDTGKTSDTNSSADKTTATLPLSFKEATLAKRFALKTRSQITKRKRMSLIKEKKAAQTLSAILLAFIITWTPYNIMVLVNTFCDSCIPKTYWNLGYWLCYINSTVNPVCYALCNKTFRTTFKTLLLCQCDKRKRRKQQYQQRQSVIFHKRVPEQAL
Method: (§2) Male SD strain rats (weighing 300-500 g) were anesthetized with urethane (1 g/kg) and α-chloralose (50 mg/kg) administered intraperitoneally. The airway and carotid artery of each rat were isolated by laryngotomy and cannulated. The carotid artery cannula was used as the test compound administration route. After suppressing spontaneous respiration by hypodermic administration of succinylcholine (5 mg/body), the rats were transferred into Plethysmograph-box (PLYAN, Buxco) and artificially ventilated under the conditions of ventilation rate of 6 ml/kg per breath and respiration rate of 90 breaths/min., using a pulmotor for small animals (Model 681, Harvard Co.). Measurements of air rate and […], calculation of airway resistance and lung compliance and their recording were conducted with lung function analyzer (Model 6, Buxco). After about 10 minutes' stabilization period, the change in airway resistance induced by intravenous administration of acetylcholine (50 μg/kg) was measured twice at 5 minutes' interval. The change in airway resistance induced by the second acetylcholine administration was recorded as the pre-administration of the tested rat (pre-value). Five (5) minutes afterthe second acetylcholine-induced reaction measurement, the test compound or isotonic sodium chloride solution was intravenously administered. Five (5) minutes thereafter, acetylcholine was administered and whereby induced airway resistance change was measured. In this experiment, one-dosage evaluation was conducted per one animal of the tested rats. The changes in acetylcholine-induced airway resistance-increasing reaction (% of pre-value) caused by the tested compound and isotonic sodium chloride solution were calculated by the following Equation 1: […]
(§3) The inhibitory effect (inhibition ratio) of each test compound on the acetylcholine-induced airway resistance-increasing reaction was determined according to the following Equation 2.
(§4) Fifty (50)% inhibition dose (ED50; μg/kg) was calculated from the inhibition ratio of each dose of the tested compound.

[5] = system: muscarinic M3 receptor; test: as above; set-up: species or system rat; settings: for Selectivity M1/M3 (in vivo): ratio of ED50 M1 to ED50 M3, rats i.v.; for Selectivity M2/M3 (in vivo): ratio of ED50 M2 to ED50 M3, rats i.v.
Method: as §2, §3, §4

Ki [1] [nM] | Ki [2] [nM] | Selectivity m1/m3 [2] [times] | Selectivity m2/m3 [2] [times] | Selectivity m4/m3 [2] [times] | Selectivity m5/m3 [2] [times] | Ki [3] [nM] | ED50 [4] [µg/kg] | Compound | Selectivity M1/M3 (in vivo) [5] [times] | Selectivity M2/M3 (in vivo) [5] [times]
140 | 0.38 | 370 | 89 | 47 | 84 | 32 | 15 | O=C(CCNC(=O)CNC(=O)CC(c1ccccc1)(c1ccccc1)c1ccccc1)NC[C@H]1CCCN(CC2CCCCC2)C1 [Example 12, N-{2-(3-{((3R)-1-cyclohexylmethyl-3-piperidyl)methyl}amino-3-oxopropyl)amino-2-oxoethyl}-3,3,3-triphenyloropanamide] | >200 | 100
> 2500 | 3.2 | >780 | 250 | 44 | 500 | 1600 | 2.1 | CC[N+]1(CC)CCC[C@H](CNC(=O)[C@H]2CCCN2C(=O)[C@@H]2C[C@@H](O)CN2C(=O)CC(c2ccccc2)(c2ccccc2)c2ccccc2)C1.[Cl-] [Example 133, (3R)-1,1-diethyl-3-({({(2R)-1-({(2S,4R)-4-hydroxy-1-(3,3,3-triphenylpropanoyl)-2-pyrrolidinyl}carbonyl)-2-pyrrolidinyl}carbonyl)amino}methyl)piperidinium chloride] | >143 | 54
